Patent US7371225B2, “Method for convection enhanced delivery of therapeutic agents” (The United States of America as represented by the …, priority 2002, dated 2008)
Where two headings read alike, the source gives them in different places.

Tests used:
[1] = tested on: sympathetic ganglia explants; conditions: cited from earlier work
[2] = in vivo; cited from earlier work
putamen = tested on: putamen; design: species or system rhesus monkeys; conditions: rhesus monkey, in vivo
Procedure: Anesthesia was induced with ketamine (10 mg/kg), xylazine (0.5 mg/kg), and thiopental sodium (1 mg/kg). The animals were secured in a monkey stereotactic frame (Kopf Instruments, Tujunga, Calif.). A Hamilton 32-gauge metal blunt tip needle connected to a 250 μl Hamilton syringe (Thompson Instruments, Chantilly, Va.) was stereotactically inserted in the center of the right putamen (anteroposterior 15.5 mm, mediolateral 12 mm and dorsoventral 24.5 mm relative to the tympanic canals and the mid-sagittal sinus)^15. After a delay of 90 minutes, the infusion was begun at 1.0 μl/min.
For CT, 130 μl, 200 μl and 235 μl of the tracer IPA-BSA/^14C-BSA mixture (35-55 Iopanoic Acid/BSA, 61.3-80.4 mg/ml ^14C-BSA) was infused. […]
CT and MRI images were analyzed in the MEDx software package (Sensor Systems, Inc., Sterling, Va.) running on a Sun workstation (Sun Microsystems, Inc., Palo Alto, Calif.). […] These were measured by volume segmentation using two different thresholds. Vd(1) was calculated as the volumes of distribution from CT and MRI containing at least 10% of the total increase in signal intensity due to the addition of contrast agent. A rectangular region of interest (ROI) over the infusion area was defined and in the corresponding site in the contralateral hemisphere, and the perfused maximal signal intensity (peak) and the unperfused maximal signal intensity (background) was measured. […]

cerebral white matter [3] = experiment: CED of iopamidol in cerebral white matter with real-time CT-imaging; type: in vivo, primates (Macaca mulatta)
Procedure: (§1) Four primates (Macaca mulatta) underwent CED of various volumes (total volume of 90 to 150 μl) of iopamidol (777 Da) in the cerebral white matter combined with CT-imaging during and after infusion (up to 5 days post-infusion), as well as quantitative autoradiography (QAR). Clinical observation (≦20 weeks) and histopathology were used to evaluate safety and toxicity.

cerebral white matter [4] = conditions: in vivo
Procedure: as §1

For `CCC(Cc1c(I)cc(I)c(N)c1I)C(=O)[O-].[Na+]` (centres unmarked) [sodium iopanoate], the “Toxicity in tissue culture” value ([1]; 0.1 mM) is listed as “vacuolization of fibroblasts” and the “Toxicity in tissue culture” value ([1]; 1 mM) is listed as “immediate death of sympathetic ganglia explants”.
For `CCC(Cc1c(I)cc(I)c(N)c1I)C(=O)O` (centres unmarked) [iopanoic acid], the “Toxicity in tissue culture” value ([1]; 0.01 mM) is listed as “No toxicity”, the “Neurotoxicity in the clinical setting” value [2] is listed as “not to be neurotoxic” and the “Side effects when used for imaging the gallbladder” value [2] is listed as “rare side effects (acute renal insufficiency, acute thrombocytompenia)”.
In the case of “IPA-BSA: Iopanoic acid conjugated to BSA, surrogate tracer for CT”, the “Mean Vd(1)” value (putamen) is reported as 3.44±0.74 and the “Mean Vd(2)” value (putamen) is reported as 4.51±1.31.
With `C[C@H](O)C(=O)Nc1c(I)c(C(=O)NC(CO)CO)c(I)c(C(=O)NC(CO)CO)c1I` [iopamidol] the “Distribution of infusate identifiable post-infusion up to” value (cerebral white matter [3]; CT-imaging) was “up to 72 hours”, the “Homogeneity of distribution of infusate” value (cerebral white matter [3]; CT-imaging) was “homogeneous” and the “Overall Vd:Vi ratio, mean±S.D.” value (cerebral white matter [3]; real-time CT-imaging, total volume 90 to 150 μl) was 4.1±0.7. For the same compound, the “Clinical or histopathologic evidence of toxicity” value (cerebral white matter [4]) was “None of the animals had clinical or histopathologic evidence of toxicity”.
